# Results: article PMC7352759, “S(+)-(2E)-N-(2-Hydroxypropyl)-3-Phenylprop-2-Enamide (KM-568): A Novel Cinnamamide Derivative with Anticonvulsant Activity in Animal Models of Seizures and Epilepsy” (International Journal of Molecular Sciences, 2020)
# Key:
# [1] = Ames microplate format (MPF) assay, TA98; details: Salmonella typhimurium
# Source text: (§1) The Ames microplate format (MPF) mutagenicity assay (Xenometrix, Allschwil, Switzerland) was used to test KM-568 mutagenicity. Growth, exposure, and indicator media, positive control chemicals, and four Salmonella typhimurium strains TA98, TA100, TA1535 and TA1537 were included in the kit. TA100 and TA1535 strains detect base substitution mutations, whereas TA98 and TA1537 indicate frameshift mutations. The strains of bacteria included in a kit are in compliance with the Organization for Economic Cooperation and Development (OECD) 471 Guideline for Testing of Chemicals.
# (§2) The assay is a liquid microplate modification of the traditional Salmonella test. During the procedure, bacteria are exposed to different concentrations of a test compound for 90 min in a medium containing sufficient histidine to support cell divisions. Then, the cultures are diluted in a pH indicator medium lacking histidine and aliquoted into 48 wells of a 384-well plate. Within 2 days, bacteria that have undergone reversion to amino acid prototrophy will form colonies. Products of bacteria metabolism reduce pH of the medium, changing the color of wells from purple to yellow.
# (§3) The test procedure provided by Xenometrix and described in detail elsewhere was followed. Bacterial strains were grown overnight (14–16 h) in exposure medium in a shaker incubator and then exposed to KM-568 in 24-well plates for 90 min at 37 °C with agitation. Final KM-568 concentrations in the assay were 0.1, 0.2, and 0.5 mM. After preincubation, the cultures were diluted in the indicator medium and the contents of each 24-well culture were transferred to 48 wells on a 384-well plate and incubated further for 48 h at 37 °C without agitation. After the exposure, the number of wells containing bacteria was scored for yellow wells. […] Pure DMSO was used as a negative control. All doses were performed in triplicate.
# (§4) The fold increase of revertants relative to the solvent control was determined by dividing the mean number of positive wells at each dose by the solvent control at baseline. The solvent control at baseline was calculated as the mean number of positive wells in the solvent control plus one standard deviation (SD). When an increase of more than twofold relative to the baseline at more than one dose with a dose–response was observed, the sample was classified as positive, whereas when no response > 2 times the baseline and no dose–response was stated, the sample was classified as negative.
# [2] = Ames microplate format (MPF) assay, TA1537; details: Salmonella typhimurium
# Source text: as §1, §2, §3, §4
# [3] = tested on: Salmonella typhimurium TA1535; assay: Ames microplate format (MPF) assay, TA1535; details: TA1535, positive control at 100 µg/mL
# Source text: as §1, §2, §3, §4
# mice [4] = details: mice i.p.; cited from earlier work
# mice [5] = details: mice i.p.; cited from earlier work; remark: listed apart in the source
# rats = tested on: rats; set-up: method as in doi:10.2174/157018012798192982; details: rats p.o.; cited from earlier work
Compound,MES ED50 (mice [4]) [mg/kg],scMET ED50 (mice [5]) [mg/kg],further results
"O=[N+]([O-])c1ccc2c(c1)Cc1ccccc1-2 [2-NF, 2-nitrofluorene, reference compound]",–,–,"fold induction at 90 min, 2 µg/mL [1]: 6.4"
"Nc1c2ccccc2nc2ccccc12 [9-AAc, 9-aminoacridine, reference compound]",–,–,"fold induction at 90 min, 15 µg/mL [2]: 48"
"NNc1ccn([C@@H]2O[C@H](CO)[C@@H](O)[C@H]2O)c(=O)n1 [N4-ACT, N-4-aminocytidine, reference compound]",–,–,fold induction of the number of positive wells over baseline [3]: 14.7 fold
"O=C(/C=C/c1ccccc1)N1CCCC(O)C1 (stereo not drawn) [R,S-(2E)-1-(3-hydroxypiperidin-1-yl)-3-phenylprop-2-en-1-one]",55.0,82.3,–
"CC(O)CNC(=O)/C=C/c1ccc(Cl)cc1 (stereo not drawn) [R,S-(2E)-3-(4-chlorophenyl)-N-(2-hydroxypropyl)prop-2-enamide]",55.6,102.2,–
"CC(O)CNC(=O)/C=C/c1ccccc1 (stereo not drawn) [R,S-(2E)-N-(2-hydroxypropyl)-3-phenylprop-2-enamide]",–,–,"MES (pharmacological parameter, ED50) (mice [4]): 47.1 mg/kg; MES (pharmacological parameter, ED50) (rats): 22.8 mg/kg; scMET (pharmacological parameter, ED50) (mice [5]): 77.1 mg/kg"
Cc1ccccc1/C=C/C(=O)N[C@@H](C)CO [S-(2E)-N-(1-hydroxypropan-2-yl)-3-(2-methylphenyl)prop-2-enamide],42.6,58.4,–
